# EP2805705B1, “Packaging with one or more administration units comprising a sodium salt of (R)-3-[6-amino-pyridin-3-yl]-2-(1-cyclohexyl-1 H-imidazol-4-yl)-propionic acid” (IP Gesellschaft für Management mbH, priority 2013, dated 2014)
# Key:
# Assay type in all cases: physicochemical
# [1] = Dynamic vapor sorption (DVS), DVS-1 instrument, two cycles at 25 °C; conditions: for weight increase in the sorption step: 25 °C
# [2] = Determination of solubility in a mixture of acetone and water (4:1, by volume); conditions: for Solubility [g in 100 g of solvent]: acetone and water (4:1, by volume); for solubility compared with polymorph 1: result in words
# Procedure: Determination of solubility: For the determination of the solubility in a mixture of acetone and water (4:1, by volume), samples of 0.5 mg to 50 mg of the test substances were suspended in a defined amount of the solvent (800 mg to 1200 mg) in screw cap vials with a magnetic stirring bar, which were placed in a temperature-controlled multiple stirring device equipped for transmission measurement (Avantium Crystal 16). With stirring at 700 rpm, the vials were cooled from room temperature to 0 °C and then heated to 60 °C with a heating rate of 3 °C/h, kept at 60 °C for 2 h and cooled again to 0 °C with a cooling rate of 3 °C/h. By means of transmission measurement it was determined whether the sample was dissolved (100 % transmission), or crystals were present. For polymorph 1 ({drug5b}), polymorph 2 ({drug5c}), hydrate 1 ({drug5e}) and hydrate 2 ({drug5f}) of compound (V) the following solubilities in a mixture of acetone and water (4:1, by volume) were determined.
# [3] = Dynamic vapor sorption (DVS), SPS11-10µ, one cycle at 25 °C; conditions: DVS isotherm at 25 °C
# Procedure: (§1) Example 7: Dynamic vapor sorption (DVS) of (R)-3-[6-amino-pyridin-3-yl]-2-(1-cyclohexyl-1 H-imidazol-4-yl)-propionic acid sodium salt monohydrate: Moisture sorption/desorption isotherms were recorded on a SPS11-10µ from Projekt Messtechnik (Ulm, Germany). One cycle was run at 25 °C, in which the sample was first stepwise decreased to 0% RH and then the relative humidity was stepwise increased from 0 to 95% and the weight of the sample was measured. Typical total measurement times for both cycles were about 20 to 30 hours. The measured data for the (R)-3-[6-amino-pyridin-3-yl]-2-(1-cyclohexyl-1 H-imidazol-4-yl)-propionic acid sodium salt monohydrate as prepared in Examples 2 or 3 are shown in the following table: DVS Isotherm at 25 °C:
# (§2) Example 12: DVS, Comparison Experiment: (R)-3-[6-amino-pyridin-3-yl]-2-(1-cyclohexyl-1 H-imidazol-4-yl)-propionic acid as prepared in Example 1 was used for the measurement. The measurement was performed as disclosed in Example 7 with (R)-3-[6-amino-pyridin-3-yl]-2-(1-cyclohexyl-1 H-imidazol-4-yl)-propionic acid (free acid, amorphous) and the received data are shown in the following table: DVS Isotherm at 25 °C
# as §1, with “(DVS):” for “(DVS) of (R)-3-[6-amino-pyridin-3-yl]-2-(1-cyclohexyl-1 H-imidazol-4-yl)-propionic acid sodium salt monohydrate:”, “Room humidity (RH)” for “RH”, “dihydrate” for “monohydrate”, “Example” for “Examples 2 or”, “isotherm” for “Isotherm”, “25°C:” for “25 °C:”
# as §2, with “9:” for “12:”
# [4] = Chiral stability on storage as a solid at 40 °C and 75 % RH (chiral HPLC)
# Procedure: Example 8: Chiral stability: Representative samples of the crystalline sodium salt of (R)-3-[6-amino-pyridin-3-yl]-2-(1-cyclohexyl-1 H-imidazol-4-yl)-propionic acid sodium salt dihydrate as prepared in Example 3 were stored as a solid under the conditions (A) and (B): (A) 40 °C and 75 % RH 2 weeks; (B) 40 °C and 75 % RH 4 weeks: Results are shown in the following table:
# Under the storage conditions the samples remain stable. […] The purity was determined by chiral HPLC on a HPLC system containing a Quaternary HPLC pump (e.g. HP 1100), an auto sampler, an UV absorbance detector (e.g. DAD Agilent Technologies or other adequate HPLC-System) and a computer data acquisition system with suitable software (e.g. Dionex-Chromeleon). A Zorbax SB_CN (4.6 x 100 mm, 3.5 µlτ ? ), column was used as stationary phase and two mobile phases A (975 mL water, 25 mL methanol, 1 mL perchloric acid) and B (975 mL methanol, 25 mL water) were used as mobile phases. The flow rate was set to a value of 1.0 mL/minute and the oven temperature was set to 15°C. Detection was performed by absorbance of the compounds at 236 nm (UV) (bandwidth: 4 nm) and reference wavelength was set to 450 nm (bandwidth: 50 nm). Typical total run times were in the range of about 10 minutes. For sample preparation 20 mg of the substance were accurately weighed into a 10 ml volumetric flask and dissolved and diluted to volume with solvent (acetonitrile/water 90:10 VN). Afterwards 1 ml of this solution was transferred to a 10 mL volumetric flask and then diluted to volume with water. For the HPLC analysis 5 µl of the sample were injected into the system. Gradient used: 0 min (time elapsed) 0% mobile phase B, 1 min 0% mobile phase B, 4 min 53% mobile phase B, 6 min 95% mobile phase B, 7 min 95% mobile phase B, 7.5 min 0% mobile phase B and after 10 min 0% mobile phase B. Enanatiomeric excess was determined by chiral HPLC on a HPLC system containing a Quaternary HPLC pump (e.g. HP 1100), an auto sampler, an UV absorbance detector (e.g. DAD Agilent Technologies or other adequate HPLC-System) and a computer data acquisition system with suitable software (e.g. Dionex-Chromeleon). A Chirobiotic R, Supelco (Astec) (4.6 x 250mm; 5µηη) column was used as stationary phase and a solution of 800 mL water, 1200 mL acetonitrile and 1.0 g ammoniumacetate was used as mobile phase. The flow rate was set to a value of 1.5 mL/minute and the oven temperature was set to 45°C. Detection was performed by absorbance of the compounds at 236 nm (UV) (bandwidth: 8 nm) and reference wavelength was set to 450 nm (bandwidth: 50 nm). Typical total run times were in the range of about 15 minutes. For sample preparation 50 mg of the substance were accurately weighed into a 10 mL volumetric flask and dissolved and diluted to volume with solvent (acetonitrile/water 50:50). For the HPLC analysis 5 µí of the sample were injected into the system. Gradient used: Isograt (15 minutes 100% mobile phase A).
# Example 10: Chiral stability; Comparison Experiment: (R)-3-[6-amino-pyridin-3-yl]-2-(1-cyclohexyl-1 H-imidazol-4-yl)-propionic acid as prepared in Example 1 was used for the measurement. Representative samples of the compound (R)-3-[6-amino-pyridin-3-yl]-2-(1-cyclohexyl-1 H-imidazol-4-yl)-propionic acid as prepared in Example 1 were stored as a solid under the conditions (A) and (B) as defined in Example 8.
smiles,measurement,setting,value
"CNc1nccc(-c2cc3cc(C(=O)N[C@@H](CN(c4ccccc4)c4ncccn4)C(N)=O)ccc3[nH]2)n1.O.O [Hydrate 1, 2-(2-methylamino-pyrimidin-4-yl)-1 H-indole-5-carboxylic acid [(S)-1-carbamoyl-2-(phenyl-pyrimidin-2-yl-amino)-ethyl]-amide dihydrate]",hygroscopicity,[1]; result in words,low hygroscopicity
same,Solubility [g in 100 g of solvent],[2]; Temperature 38.6 °C,2.11 g in 100 g of solvent
same,Solubility [g in 100 g of solvent],[2]; Temperature 49.7 °C,3.39 g in 100 g of solvent
same,Solubility [g in 100 g of solvent],[2]; Temperature 57.4 °C,5.04 g in 100 g of solvent
same,solubility compared with polymorph 1,[2],higher solubility than polymorph 1
"CNc1nccc(-c2cc3cc(C(=O)N[C@@H](CN(c4ccccc4)c4ncccn4)C(N)=O)ccc3[nH]2)n1 [Polymorph 2, 2-(2-methylamino-pyrimidin-4-yl)-1 H-indole-5-carboxylic acid [(S)-1-carbamoyl-2-(phenyl-pyrimidin-2-yl-amino)-ethyl]-amide]",weight increase in the sorption step,"[1]; Relative humidity 40 %, first cycle",0.2%
same,weight increase in the sorption step,"[1]; Relative humidity 40 %, second cycle",0.0%
same,weight increase in the sorption step,"[1]; Relative humidity 60 %, first cycle",0.3%
same,weight increase in the sorption step,"[1]; Relative humidity 60 %, second cycle",0.1%
same,weight increase in the sorption step,"[1]; Relative humidity 80 %, first cycle",0.4%
same,weight increase in the sorption step,"[1]; Relative humidity 80 %, second cycle",0.3%
same,weight increase in the sorption step,"[1]; Relative humidity 95 %, first cycle",0.8%
same,weight increase in the sorption step,"[1]; Relative humidity 95 %, second cycle",0.6%
same,water uptake (hygroscopicity),[1]; at a high relative humidity of 80 %,about 0.4%
same,Solubility [g in 100 g of solvent],[2]; Temperature 46.0 °C,1.02 g in 100 g of solvent
same,Solubility [g in 100 g of solvent],[2]; Temperature 57.5 °C,2.48 g in 100 g of solvent
same,solubility compared with polymorph 1,[2],higher solubility than polymorph 1
Nc1ccc(C[C@@H](C(=O)[O-])c2cn(C3CCCCC3)cn2)cn1.O.[Na+] [(R)-3-[6-amino-pyridin-3-yl]-2-(1-cyclohexyl-1 H-imidazol-4-yl)-propionic acid sodium salt monohydrate],Change In Mass (%) Desorption,[3]; Target RH 0.2 %,-4.4%
same,Change In Mass (%) Desorption,[3]; Target RH 10.0 %,-0.6%
same,Change In Mass (%) Sorption,[3]; Target RH 10.0 %,-3.7%
same,Change In Mass (%) Desorption,[3]; Target RH 20.0 %,-0.1%
same,Change In Mass (%) Sorption,[3]; Target RH 20.0 %,-0.2%
same,Change In Mass (%) Sorption,[3]; Target RH 30.0 %,0.2%
same,Change In Mass (%) Desorption,[3]; Target RH 30.1 %,0.1%
same,Change In Mass (%) Sorption,[3]; Target RH 40.0 %,0.6%
same,Change In Mass (%) Sorption,[3]; Target RH 50.0 %,0.9%
same,Change In Mass (%) Sorption,[3]; Target RH 60.0 %,1.5%
same,Change In Mass (%) Sorption,[3]; Target RH 70.0 %,4.0%
same,Change In Mass (%) Sorption,[3]; Target RH 75.0 %,8.2%
same,Change In Mass (%) Sorption,[3]; Target RH 80.1 %,11.9%
same,Change In Mass (%) Sorption,[3]; Target RH 85.1 %,17.7%
same,Change In Mass (%) Sorption,[3]; Target RH 90.0 %,38.2%
same,Change In Mass (%) Sorption,[3]; Target RH 94.9 %,67.4%
Nc1ccc(C[C@@H](C(=O)[O-])c2cn(C3CCCCC3)cn2)cn1.O.O.[Na+] [(R)-3-[6-amino-pyridin-3-yl]-2-(1-cyclohexyl-1 H-imidazol-4-yl)-propionic acid sodium salt dihydrate],Change In Mass (%) Desorption,[3]; Target RH 0.3 %,-0.1%
same,Change In Mass (%) Desorption,[3]; Target RH 10.0 %,0.0%
same,Change In Mass (%) Sorption,[3]; Target RH 10.0 %,0.0%
same,Change In Mass (%) Sorption,[3]; Target RH 20.0 %,0.0%
same,Change In Mass (%) Desorption,[3]; Target RH 20.1 %,0.0%
same,Change In Mass (%) Sorption,[3]; Target RH 30.0 %,0.0%
same,Change In Mass (%) Desorption,[3]; Target RH 30.1 %,0.0%
same,Change In Mass (%) Sorption,[3]; Target RH 40.0 %,0.0%
same,Change In Mass (%) Sorption,[3]; Target RH 50.0 %,0.0%
same,Change In Mass (%) Sorption,[3]; Target RH 60.0 %,0.1%
same,Change In Mass (%) Sorption,[3]; Target RH 70.1 %,0.71%
same,Change In Mass (%) Sorption,[3]; Target RH 75.0 %,0.8%
same,Change In Mass (%) Sorption,[3]; Target RH 80.0 %,2.1%
same,Change In Mass (%) Sorption,[3]; Target RH 85.1 %,2.7%
same,Change In Mass (%) Sorption,[3]; Target RH 90.1 %,18.8%
same,Change In Mass (%) Sorption,[3]; Target RH 94.9 %,51.8%
same,Enantiomeric excess,"[4]; Storage condition (A) 40 °C and 75 % RH 2 weeks, stored as a solid",99.6%
same,Enantiomeric excess,"[4]; Storage condition (B) 40 °C and 75 % RH 4 weeks, stored as a solid",99.5%
same,Enantiomeric excess,[4]; at the beginning,99.6%
"CNc1nccc(-c2cc3cc(C(=O)N[C@@H](CN(c4ccccc4)c4ncccn4)C(N)=O)ccc3[nH]2)n1.O.O.O.O.O.O [Hydrate 2, 2-(2-methylamino-pyrimidin-4-yl)-1 H-indole-5-carboxylic acid [(S)-1-carbamoyl-2-(phenyl-pyrimidin-2-yl-amino)-ethyl]-amide hexahydrate]",Solubility [g in 100 g of solvent],[2]; Temperature 36.8 °C,0.50 g in 100 g of solvent
same,Solubility [g in 100 g of solvent],[2]; Temperature 46.1 °C,1.02 g in 100 g of solvent
same,Solubility [g in 100 g of solvent],[2]; Temperature 55.9 °C,2.61 g in 100 g of solvent
same,solubility compared with polymorph 1,[2],higher solubility than polymorph 1
